Experimental data reported in patent publication US9234004B2, “Antimicrobial peptides” (Agency for Science, Technology and Research, priority 2010, dated 2016).
Values after ≈ are worked out from the molar mass of the structure shown. Like-named read-outs stand apart in the source and are kept apart here. Bridge positions count the residues as written; N and C are the ends. Ends that are not written are not given here. Peptide text beside a SMILES is read from it. I, II: the chains in the order shown.

Columns and labels:
Type in all cases: cell-based
[1] = tested on: B. subtilis (ATCC No. 23857); settings: ATCC No. 23857, 18 h
Description: (§1) Microbes were re-constituted from their dried pellets obtained from ATCC according to the recommended protocols. Bacterial culture was done in tryptic soy broth at 37° C., while yeast was cultured in yeast mould broth at room temperature, under constant shaking at 100 rpm. Briefly, microbial suspension was first adjusted to contain ˜3×10^8 CFU/mL, by adjusting its 600 nm absorbance to be equivalent to that of the standard McFarland 1 reference. The suspension was then diluted to contain ˜3×10^6 CFU/mL. Under this condition, the O.D. reading was approximately 0.05-0.06 for bacterial cultures, and 0.03-0.04 for yeast cultures. Equal volume (100 μL) of the microbial suspension and the peptide solutions was mixed in a 96-well plate, and the microbial growth was monitored by measuring the O.D. reading at 0 and 18 hours.

[2] = tested on: C. albicans (ATCC No. 10231); settings: ATCC No. 10231, 18 h
Description: as §1

[3] = tested on: E. aerogenes (ATCC No. 13048); settings: ATCC No. 13048, 18 h
Description: as §1

[4] = tested on: P. aeruginosa (ATCC No. 9027); settings: ATCC No. 9027, 18 h
Description: as §1

[5] = tested on: S. aureus (ATCC No. 29737); settings: ATCC No. 29737, 18 h
Description: as §1

[6] = tested on: human red blood cells (hRBC)
Description: The peptides' hemolysis was tested in human red blood cells (hRBC). hRBCs were diluted 25× to achieve 4% concentration (v %) in phosphate-buffered saline (PBS, pH 7.4). Upon dilution, the blood suspension was treated with equal volume of (LLKK)4 (SEQ ID NO: 8), [(LLKK)2]2, or [(LLKK)2]4 peptide solution in PBS to reach final peptide concentrations of 0-500 mg/L. The treatment was performed inside a 37° C. incubator for 1 hour, after which the mixture was centrifuged at 1000 g for 5 mins to remove the non-hemolysed blood cells. The supernatant (100 μL) was transferred into a 96-well plate, and measured spectrophotometrically for its absorbance at 567 nm using a microplate reader (TECAN, Switzerland)^[5]. PBS and 0.1% Triton-X were used as negative and positive controls respectively. Hemolysis level was calculated according to the following formula: % Hemolytic=(Absorbance for Peptide treatment−Absorbance for PBS treatment)/(Absorbance for Triton treatment−Absorbance for PBS treatment)×100% Minimum Inhibitory Concentration (MIC)

[7] = tested on: E. coli; settings: 2
Description: (§2) E. coli and S. aureus were treated at MIC and 2×MIC concentrations with [(LLKK)2]4 peptide. At various time periods (0, 0.5, 1, 2, 5, 8 and 18 hours), microbial suspensions were diluted at 3 different dilutions and plated on 1.5% LB agar plates. Microbial colonies were formed and counted after 24 hours of incubation (for bacteria) or 48 hours of incubation (for yeast).

[8] = tested on: S. aureus; settings: 2
Description: as §2

[9] = tested on: E. coli (ATCC No. 25922); settings: ATCC No. 25922, 18 h
Description: as §1

[10] = tested on: B. subtilis; settings: 8 h
Description: (§3) Microbial cells were firstly re-constituted from its lyophilized form according to the manufacturer's protocol. Bacterial cells were cultured in tryptic soy broth (TSB) at 37° C., and yeast cells were cultured in yeast mould broth (YMB) at room temperature under constant shaking at 100 rpm. Broth containing an antimicrobial peptide was prepared at various concentrations (0.98, 1.95, 3.90, 7.81, 15.63, 31.25, 62.5, 125, 250, 500 mg/L) and transferred into a 96-well tissue culture plate (100 μL/well). Microorganism was first inoculated overnight to enter its log growth-phase. An equal volume of microorganism solution (100 μL) was added into each well of the 96-well plate containing the antimicrobial peptide. Prior to this mixing, the concentration of microorganism solution was adjusted to give an initial optical density (O.D.) reading of 0.1-0.2 at 600 nm wavelength. The growth of the microorganism was observed upon introducing the antimicrobial peptide by measuring the O.D. readings at 2 hour intervals for up to 8 hours. […] Broth containing microbial cells was used as the negative control, and each test was carried out in 6 replicates. The standard deviations of the 6 readings were reported as the error bars.

[11] = tested on: C. albicans; settings: 8 h
Description: as §3

[12] = tested on: E. coli; settings: 8 h
Description: as §3

[13] = tested on: rat red blood cells; assay: Hemolytic activity test
Description: Peptides were obtained from GL Biochem (Shanghai, China), and their fidelity was further confirmed via matrix-assisted laser desorption/ionization time-of-flight mass spectroscopy (MALDI-TOF MS, Model Autoflex II, Bruker Daltonics Inc., U.S.A.), using α-cyano-4-hydroxycinnamic acid as matrix. The purity of the peptides was also tested to be more than 95% with analytical reverse phase (RP)-HPLC. α-Cyano-4-hydroxycinnamic acid (HCCA) was purchased from Sigma-Aldrich (Singapore) and used in saturated acetonitrile/water (1:1 volume ratio) after being re-crystallized. Sodium dodecyl sulphate (SDS) micelle solution (10% w/v in DI water) was obtained from 1st Base (Malaysia) and used upon dilution to the desirable concentration range. Tryptic soy broth (TSB) powder and yeast mould broth (YMB) powder were purchased from BD Diagnostics (Singapore) and used to prepare the microbial broths according to the manufacturer's instructions. Phosphate-buffered saline solution at 10× concentration was purchased from 1st Base (Malaysia) and used after dilution to the desired concentration. Ethanol (analytical grade, 99%) and glutaraldehyde (synthetic grade, 50% in H2O) were purchased from Sigma Aldrich (Singapore) and used as received. […] Red blood cells used in the experiments were obtained from rats maintained at the Animal Handling Units of the Biomedical Research Centers (Singapore). Human peripheral blood mononuclear cells (PBMCs) were extracted from healthy blood donors and maintained with RPMI medium supplemented with 10% lowendotoxin fetal bovine serum (FBS) and 1% penicillin-streptomycin. Granulocyte macrophage-colony stimulating factor (GM-CSF) and lipopolysaccharide were purchased from Sigma-Aldrich and used as received.
Fresh red blood cells were washed with PBS for three times, and were subjected to 25 times dilution with PBS to reach a concentration of approximately 4% (in volume) of the blood cells. The red blood cell suspension (100 μL) was placed into a 96-well cell culture plate and mixed with 100 μL of the antimicrobial peptide solution in PBS at concentrations of 0.98, 1.95, 3.90, 7.81, 15.63, 31.25, 62.5, 125, 250, 500 mg/L. The mixture was then incubated at 37° C. for 1 hour to allow for the hemolysis process to take place. At the end of incubation time, the non-hemolysed red blood cells were separated by centrifugation at 13000 g for 5 minutes. Aliquots (100 μL) of the supernatant were transferred into a new 96-well plate, and the hemoglobin release was measured by checking the UV-absorbance of the samples at 576 nm using a microplate reader (TECAN, Switzerland). Two controls were provided in this assay: an untreated red blood cell suspension in PBS was used as the negative control, and a solution containing red blood cells lysed with 0.1% Triton-X was used as the positive control. Each assay was performed in 6 replicates, and the data were expressed as means and standard deviations of the 6 replicates. Percentage of hemolysis was calculated using the following formula: Hemolysis (%)=[(O.D.576 nm of the treated sample−O.D.576 nm of the negative control)/(O.D.576 nm of positive control−O.D.576 nm of negative control)]×100%. Field Emission-Scanning Electron Microscopy (FE-SEM) Analysis of Bacterial Cells

Compound	MIC B. subtilis [1] [µg/mL]	MIC C. albicans [2] [µg/mL]	MIC E. aerogenes [3] [µg/mL]	MIC P. aeruginosa [4] [µg/mL]	MIC S. aureus [5] [µg/mL]	hemolytic activity towards human red blood cells, in words [6]	HC50 ([6]; red cells of human, 1 h) [mg/L]	cells killed after 1 hour ([7]; 1 h)	cells killed after 8 hours ([7]; 8 h)	cells killed after 1 hour ([8]; 1 h)	cells killed after 8 hours ([8]; 8 h)	MIC E. coli [9] [µg/mL]	hemolysis at 500 mg/L ([6]; red cells of human, 500) [%]	MIC B. subtilis [10] [µg/mL]	MIC C. albicans [11] [µg/mL]	MIC E. coli [12] [µg/mL]	hemolysis at the MIC against B. subtilis [13] [%]	HC50 (50% hemolytic concentration) ([13]; red cells of rat, 1 h) [mg/L]	HC50 [6] [mg/L]
CC(C)C[C@H](NC(=O)[C@H](CC(C)C)NC(=O)[C@H](CCCCN)NC(=O)[C@H](CCCCN)NC(=O)[C@H](CC(C)C)NC(=O)[C@@H](N)CC(C)C)C(=O)N[C@@H](CCCCN)C(=O)N[C@@H](CCCCN)C(=O)NCCCC[C@H](NC(=O)[C@H](CCCCN)NC(=O)[C@H](CCCCN)NC(=O)[C@H](CC(C)C)NC(=O)[C@H](CC(C)C)NC(=O)[C@H](CCCCN)NC(=O)[C@H](CCCCN)NC(=O)[C@H](CC(C)C)NC(=O)[C@@H](N)CC(C)C)C(=O)N[C@@H](CSSC[C@H](NC(=O)[C@H](CCCCNC(=O)[C@H](CCCCN)NC(=O)[C@H](CCCCN)NC(=O)[C@H](CC(C)C)NC(=O)[C@H](CC(C)C)NC(=O)[C@H](CCCCN)NC(=O)[C@H](CCCCN)NC(=O)[C@H](CC(C)C)NC(=O)[C@@H](N)CC(C)C)NC(=O)[C@H](CCCCN)NC(=O)[C@H](CCCCN)NC(=O)[C@H](CC(C)C)NC(=O)[C@H](CC(C)C)NC(=O)[C@H](CCCCN)NC(=O)[C@H](CCCCN)NC(=O)[C@H](CC(C)C)NC(=O)[C@@H](N)CC(C)C)C(N)=O)C(N)=O [[(LLKK)2]4, [LLKKLLKK]2K*C—S—S—CK*[KKLLKKLL]2] (I: H-LLKKLLKKKC-NH2 / II: H-LLKKLLKKKC-NH2 / III: H-LLKKLLKK / IV: H-LLKKLLKK; amide I:9-III:C, II:9-IV:C; disulfide I:10-II:10)	16 (≈ 3.67 µM)	125 (≈ 28.7 µM)	63 (≈ 14.5 µM)	8 (≈ 1.84 µM)	400 (≈ 91.8 µM)	only hemolytic at an acceptable level	>500	more than 50%	more than 99.99%	more than 50%	more than 99.99%								
CC(C)C[C@H](NC(=O)[C@H](CC(C)C)NC(=O)[C@H](CCCCN)NC(=O)[C@H](CCCCN)NC(=O)[C@H](CC(C)C)NC(=O)[C@@H](N)CC(C)C)C(=O)N[C@@H](CCCCN)C(=O)N[C@@H](CCCCN)C(=O)NCCCC[C@H](NC(=O)[C@H](CCCCN)NC(=O)[C@H](CCCCN)NC(=O)[C@H](CC(C)C)NC(=O)[C@H](CC(C)C)NC(=O)[C@H](CCCCN)NC(=O)[C@H](CCCCN)NC(=O)[C@H](CC(C)C)NC(=O)[C@@H](N)CC(C)C)C(=O)N[C@@H](CS)C(N)=O [[(LLKK)2]2, [LLKKLLKK]2K*C—CONH2] (I: H-LLKKLLKKKC-NH2 / II: H-LLKKLLKK; amide I:9-II:C)	8 (≈ 3.67 µM)	63 (≈ 28.9 µM)	125 (≈ 57.4 µM)	8 (≈ 3.67 µM)	>500		>500					31 (≈ 14.2 µM)	~18						
LLKKLLKKLLKKLLKK-NH2 [(LLKK)4, LLKKLLKKLLKKLLKK-NH2]	6.3	>50	25	6.3	>50	significant hemolysis at concentrations around its MICs						12.5		10	>50	>50	~30	~24	~37.5
